In US20260232658A1, “AZETIDINYL BENZOXAZOLE COMPOUNDS AND THEIR USE AS MER AND AXL INHIBITORS” (DONG-A ST CO., LTD., priority 2022, published 2026):

Key:
TYRO3 (455-end) = biological target: T1, TYRO3 (455-end) (Homo sapiens, UniProt Q06418); assay: HTRF kinase activity biochemical assay, TYRO3; conditions: recombinant kinase, 10 uM ATP, 30 minutes pre-incubation; read-out: HTRF TYRO IC50;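 further: biotinylated tyrosine kinase substrate phosphorylation detected via streptavidin-XL665 and Eu3+-cryptate anti-phospho antibody time-resolved fluorescence, read after 1 h detection at room temperature, 384-well format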
T1 construct: TYRO3 (455-end); purchased SignalChem, Canada
T1 sequence (Q06418 455-890 limits assumed): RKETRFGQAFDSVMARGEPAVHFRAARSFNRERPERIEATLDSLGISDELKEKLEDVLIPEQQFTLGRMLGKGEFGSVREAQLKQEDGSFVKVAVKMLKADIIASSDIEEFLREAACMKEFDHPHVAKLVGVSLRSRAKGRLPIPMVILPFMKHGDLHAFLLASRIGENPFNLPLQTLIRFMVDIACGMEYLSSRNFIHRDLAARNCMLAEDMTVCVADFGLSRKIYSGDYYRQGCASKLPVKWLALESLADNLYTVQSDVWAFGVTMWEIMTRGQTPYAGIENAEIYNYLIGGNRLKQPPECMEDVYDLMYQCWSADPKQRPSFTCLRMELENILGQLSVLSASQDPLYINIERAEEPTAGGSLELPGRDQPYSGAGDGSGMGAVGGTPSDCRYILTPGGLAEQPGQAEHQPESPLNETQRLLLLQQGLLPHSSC

human MER (528-end) = biological target: T2, human MER (528-end) (Homo sapiens, UniProt Q12866); assay: HTRF kinase activity biochemical assay, MER; conditions: recombinant kinase, 10 uM ATP, 30 minutes pre-incubation; read-out: HTRF MERTK IC50;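 further: phosphorylation of a biotin-tagged tyrosine kinase substrate detected by Eu3+-cryptate antibody and streptavidin-XL665 time-resolved fluorescence, read after 1 h at room temperature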
T2 construct: human MER (528-end); purchased Carnabio, Japan
T2 sequence (Q12866 528-999 limits assumed): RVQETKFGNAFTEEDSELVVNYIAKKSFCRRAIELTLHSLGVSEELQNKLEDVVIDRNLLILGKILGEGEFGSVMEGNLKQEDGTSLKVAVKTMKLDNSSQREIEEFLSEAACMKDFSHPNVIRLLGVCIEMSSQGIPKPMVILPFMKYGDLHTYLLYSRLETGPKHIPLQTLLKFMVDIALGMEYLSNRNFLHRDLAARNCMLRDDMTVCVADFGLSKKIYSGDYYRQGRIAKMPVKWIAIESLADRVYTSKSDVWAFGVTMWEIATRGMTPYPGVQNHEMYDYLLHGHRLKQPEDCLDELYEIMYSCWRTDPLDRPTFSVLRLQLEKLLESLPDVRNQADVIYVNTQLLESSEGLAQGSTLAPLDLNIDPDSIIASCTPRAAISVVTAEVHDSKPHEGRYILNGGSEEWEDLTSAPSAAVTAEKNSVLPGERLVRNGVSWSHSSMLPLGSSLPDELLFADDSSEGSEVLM

MC-38 cells = assay: MC-38 Efficacy Assay (tumor growth inhibition); type: in vivo, Female C57BL/6 mice; conditions: once a day for 21 days, subcutaneous MC-38 tumors in C57BL/6 mice
human AXL (473-end) = biological target: T3, human AXL (473-end) (Homo sapiens, UniProt P30530); assay: HTRF kinase activity biochemical assay, AXL; conditions: recombinant kinase, 10 uM ATP, 30 minutes pre-incubation; read-out: HTRF AXL IC50;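 further: phosphorylation of a biotinylated tyrosine kinase substrate detected via Eu3+-cryptate anti-TK antibody and streptavidin-XL665, fluorescence read after a 1 h incubation at room temperature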
T3 construct: human AXL (473-end); purchased SignalChem, Canada
T3 sequence (P30530 473-894 limits assumed): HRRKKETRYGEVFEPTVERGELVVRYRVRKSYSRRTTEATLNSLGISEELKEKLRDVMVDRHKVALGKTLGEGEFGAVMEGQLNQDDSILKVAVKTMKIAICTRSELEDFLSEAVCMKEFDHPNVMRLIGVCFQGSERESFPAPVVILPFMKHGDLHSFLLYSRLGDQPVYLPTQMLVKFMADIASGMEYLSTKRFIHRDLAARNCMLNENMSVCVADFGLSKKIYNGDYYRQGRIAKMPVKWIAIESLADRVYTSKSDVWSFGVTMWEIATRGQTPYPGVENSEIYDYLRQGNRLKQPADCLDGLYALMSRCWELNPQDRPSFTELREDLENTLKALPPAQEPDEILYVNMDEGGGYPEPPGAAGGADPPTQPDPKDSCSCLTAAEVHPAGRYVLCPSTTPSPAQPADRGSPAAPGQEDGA

Q: Which IC50 (TYRO3 (455-end)) does the source give for `CC(C)(O)Cn1cc(Nc2ncc(C3CN(c4nc5ccccc5o4)C3)nc2C(N)=O)cn1` [Example 30, 6-[1-(1,3-benzoxazol-2-yl)azetidin-3-yl]-3-{[1-(2-hydroxy-2-methylpropyl)-1H-pyrazol-4-yl]amino}pyrazine-2-carboxamide] here?
A: 360 nM

Q: And the IC50 (human MER (528-end))?
A: 3 nM

Q: What about the “% TGI (dose)” value (MC-38 cells; 10 mg/kg/d) of the same molecule?
A: 33%

Q: What about the IC50 (human AXL (473-end)) of the same molecule?
A: 11 nM

Q: Which IC50 (TYRO3 (455-end)) does the source give for `CN1CCC(Oc2ccc3nc(N4CC(c5cnc(Nc6cnn(C)c6)c(C(N)=O)n5)C4)oc3c2)C1=O` (stereo not drawn) [Example 72, 6-(1-{6-[(1-methyl-2-oxopyrrolidin-3-yl)oxy]-1,3-benzoxazol-2-yl}azetidin-3-yl)-3-[(1-methyl-1H-pyrazol-4-yl)amino]pyrazine-2-carboxamide] here?
A: 940 nM

Q: What about the IC50 (human MER (528-end)) of the same molecule?
A: 1 nM

Q: And the “% TGI (dose)” value (MC-38 cells; 30 mg/kg/d)?
A: 44%

Q: And the IC50 (human AXL (473-end))?
A: 3 nM

Q: Which results are given for `Cn1cc(Nc2ccc(C3CN(c4nc5ccc(OCC(C)(C)O)cc5o4)C3)nc2C(N)=O)cn1` [Example 85, 6-{1-[6-(2-hydroxy-2-methylpropoxy)-1,3-benzoxazol-2-yl]azetidin-3-yl}-3-[(1-methyl-1H-pyrazol-4-yl)amino]pyridine-2-carboxamide]?
A: IC50 (TYRO3 (455-end)): 1850 nM; IC50 (human MER (528-end)): 2 nM; % TGI (dose) (MC-38 cells; 10 mg/kg/d): 37%; IC50 (human AXL (473-end)): 4 nM

Q: What does the source list for `CC(C)(O)Cn1cc(Nc2ncc(C3CN(c4nc5ccc(F)cc5o4)C3)nc2C(N)=O)cn1` [Example 28, 6-[1-(6-fluoro-1,3-benzoxazol-2-yl)azetidin-3-yl]-3-{[1-(2-hydroxy-2-methylpropyl)-1H-pyrazol-4-yl]amino}pyrazine-2-carboxamide]?
A: IC50 (TYRO3 (455-end)): 150 nM; IC50 (human MER (528-end)): 1 nM; % TGI (dose) (MC-38 cells; 10 mg/kg/d): 17%; IC50 (human AXL (473-end)): 6 nM

Q: `Cn1cc(Nc2ncc(C3CN(c4nc5ccc(OCCC(C)(C)OP(=O)(O)O)cc5o4)C3)nc2C(N)=O)cn1` [Example 77, 4-{[2-(3-{6-carbamoyl-5-[(1-methyl-1H-pyrazol-4-yl)amino]pyrazin-2-yl}azetidin-1-yl)-1,3-benzoxazol-6-yl]oxy}-2-methylbutan-2-yl dihydrogen phosphate] was tested. Which IC50 (TYRO3 (455-end)) did it give?
A: 3300 nM

Q: And the IC50 (human MER (528-end))?
A: 33 nM

Q: And the “% TGI (dose)” value (MC-38 cells; 15 mg/kg/d)?
A: 39%

Q: And the IC50 (human AXL (473-end))?
A: 54 nM

Q: Which IC50 (TYRO3 (455-end)) does the source give for `Cn1cc(Nc2ncc(C3CN(c4nc5ccc(OCc6ccn(C)n6)cc5o4)C3)nc2C(N)=O)cn1` [Example 80, 3-[(1-methyl-1H-pyrazol-4-yl)amino]-6-(1-{6-[(1-methyl-1H-pyrazol-3-yl)methoxy]-1,3-benzoxazol-2-yl}azetidin-3-yl)pyrazine-2-carboxamide] here?
A: 48 nM

Q: What about the IC50 (human MER (528-end)) of the same molecule?
A: < 1 nM

Q: And the “% TGI (dose)” value (MC-38 cells; 10 mg/kg/d)?
A: 23%

Q: What about the IC50 (human AXL (473-end)) of the same molecule?
A: 1 nM

Q: For `CCOC(C)(C)c1ccc2nc(N3CC(c4cnc(Nc5cnn(C)c5)c(C(N)=O)n4)C3)oc2c1` [Example 101, 6-{1-[6-(2-ethoxypropan-2-yl)-1,3-benzoxazol-2-yl]azetidin-3-yl}-3-[(1-methyl-1H-pyrazol-4-yl)amino]pyrazine-2-carboxamide], which IC50 (TYRO3 (455-end)) is on record?
A: 1490 nM

Q: What about the IC50 (human MER (528-end)) of the same molecule?
A: 8 nM

Q: And the IC50 (human AXL (473-end))?
A: 12 nM

Q: With `Cn1cc(COc2ccc3nc(N4CC(c5cnc(Nc6cnn(C)c6)c(C(N)=O)n5)C4)oc3c2)cn1` [Example 97, 3-[(1-methyl-1H-pyrazol-4-yl)amino]-6-(1-{6-[(1-methyl-1H-pyrazol-4-yl)methoxy]-1,3-benzoxazol-2-yl}azetidin-3-yl)pyrazine-2-carboxamide] as the molecule, how does the IC50 (TYRO3 (455-end)) read?
A: 150 nM

Q: And the IC50 (human MER (528-end))?
A: 1 nM

Q: What about the IC50 (human AXL (473-end)) of the same molecule?
A: 4 nM

Q: With `Cn1cc(Nc2ncc(C3CN(c4nc5ccc(C(=O)N6CCC[C@@H]6CO)cc5o4)C3)nc2C(N)=O)cn1` [Example 59, 6-(1-{6-[(2R)-2-(hydroxymethyl)pyrrolidine-1-carbonyl]-1,3-benzoxazol-2-yl}azetidin-3-yl)-3-[(1-methyl-1H-pyrazol-4-yl)amino]pyrazine-2-carboxamide] as the molecule, how does the IC50 (TYRO3 (455-end)) read?
A: 30 nM

Q: What about the IC50 (human MER (528-end)) of the same molecule?
A: < 1 nM

Q: And the IC50 (human AXL (473-end))?
A: 2 nM

Q: For `Cc1ccc2nc(N3CC(c4cnc(Nc5cn[nH]c5)c(C(N)=O)n4)C3)oc2c1` [Example 74, 6-[1-(6-methyl-1,3-benzoxazol-2-yl)azetidin-3-yl]-3-[(1H-pyrazol-4-yl)amino]pyrazine-2-carboxamide], which IC50 (TYRO3 (455-end)) is on record?
A: 130 nM

Q: What about the IC50 (human MER (528-end)) of the same molecule?
A: 2 nM

Q: What about the IC50 (human AXL (473-end)) of the same molecule?
A: 4 nM

Q: With `COC(=O)c1ccc2nc(N3CC(c4cnc(Nc5cnn(C)c5)c(C(N)=O)n4)C3)oc2c1` [Example 13, methyl 2-(3-{6-carbamoyl-5-[(1-methyl-1H-pyrazol-4-yl)amino]pyrazin-2-yl}azetidin-1-yl)-1,3-benzoxazole-6-carboxylate] as the molecule, how does the IC50 (TYRO3 (455-end)) read?
A: 120 nM

Q: What about the IC50 (human MER (528-end)) of the same molecule?
A: 2 nM

Q: What about the IC50 (human AXL (473-end)) of the same molecule?
A: 3 nM

Q: With `CC(C)(O)CCOc1ccc2nc(N3CC(c4cnc(Nc5cn[nH]c5)c(C(N)=O)n4)C3)oc2c1` [Example 96B, 6-{1-[6-(3-hydroxy-3-methylbutoxy)-1,3-benzoxazol-2-yl]azetidin-3-yl}-3-[(1H-pyrazol-4-yl)amino]pyrazine-2-carboxamide] as the molecule, how does the IC50 (TYRO3 (455-end)) read?
A: 670 nM

Q: What about the IC50 (human MER (528-end)) of the same molecule?
A: 2 nM

Q: And the IC50 (human AXL (473-end))?
A: 7 nM

Q: With `Cn1cc(Nc2ncc(C3CN(c4nc5ccc(OCC6COC(C)(C)OC6)cc5o4)C3)nc2C(N)=O)cn1` [Example 51A, 6-(1-{6-[(2,2-dimethyl-1,3-dioxan-5-yl)methoxy]-1,3-benzoxazol-2-yl}azetidin-3-yl)-3-[(1-methyl-1H-pyrazol-4-yl)amino]pyrazine-2-carboxamide] as the molecule, how does the IC50 (TYRO3 (455-end)) read?
A: 2380 nM

Q: And the IC50 (human MER (528-end))?
A: 2 nM

Q: And the IC50 (human AXL (473-end))?
A: 17 nM

Q: How did the IC50 (TYRO3 (455-end)) turn out when `Cn1cc(Nc2ncc(C3CN(c4nc5ccc(CC(=O)O)cc5o4)C3)nc2C(N)=O)cn1` [Example 65C, [2-(3-{6-carbamoyl-5-[(1-methyl-1H-pyrazol-4-yl)amino]pyrazin-2-yl}azetidin-1-yl)-1,3-benzoxazol-6-yl]acetic acid] was run?
A: 3530 nM

Q: What about the IC50 (human MER (528-end)) of the same molecule?
A: 35 nM

Q: What about the IC50 (human AXL (473-end)) of the same molecule?
A: 95 nM

Q: With `CCOC(=O)Cn1cc(COc2ccc3nc(N4CC(c5cnc(Nc6cnn(C)c6)c(C(N)=O)n5)C4)oc3c2)cn1` [Example 104C, ethyl [4-({[2-(3-{6-carbamoyl-5-[(1-methyl-1H-pyrazol-4-yl)amino]pyrazin-2-yl}azetidin-1-yl)-1,3-benzoxazol-6-yl]oxy}methyl)-1H-pyrazol-1-yl]acetate] as the molecule, how does the IC50 (TYRO3 (455-end)) read?
A: 620 nM

Q: And the IC50 (human MER (528-end))?
A: 4 nM

Q: And the IC50 (human AXL (473-end))?
A: 27 nM

Q: Which IC50 (TYRO3 (455-end)) does the source give for `Cn1cc(Nc2ncc(C3CN(c4nc5ccc(C(F)(F)F)cc5o4)C3)nc2C(N)=O)cn1` [Example 12, 3-[(1-methyl-1H-pyrazol-4-yl)amino]-6-{1-[6-(trifluoromethyl)-1,3-benzoxazol-2-yl]azetidin-3-yl}pyrazine-2-carboxamide] here?
A: 220 nM

Q: What about the IC50 (human MER (528-end)) of the same molecule?
A: 1 nM

Q: And the IC50 (human AXL (473-end))?
A: 4 nM

Q: `Cn1cc(Nc2ncc(C3CN(c4nc5ccc(-c6ccccc6)cc5o4)C3)nc2C(N)=O)cn1` [Example 8, 3-[(1-methyl-1H-pyrazol-4-yl)amino]-6-[1-(6-phenyl-1,3-benzoxazol-2-yl)azetidin-3-yl]pyrazine-2-carboxamide] was tested. Which IC50 (TYRO3 (455-end)) did it give?
A: 280 nM

Q: What about the IC50 (human MER (528-end)) of the same molecule?
A: 2 nM

Q: And the IC50 (human AXL (473-end))?
A: 7 nM
